Results on eight compounds are retold here after article PMC6467533 (Chembiochem : a European journal of chemical biology, 2018).

The subject of test [1] is M. aurum. To be noted: cited from earlier work.
In test [2] the test system is M. smegmatis biofilm formation. To be noted: cited from earlier work.
Test [3] has as its system Ag85C. To be noted: cited from earlier work.
In test [4] the test system is Mtb. As to conditions: cited from earlier work.
The target of test [5] is Mtb TPP (Mycobacterium tuberculosis, UniProt P9WFZ5). It counts as biochemical.
Test [6] concerns Mlt TPP. It is filed as biochemical, M. lentiflavum.
The target in test [7] is Mtx TPP (Mycobacterium triplex, UniProt A0A024JUE5). In words: biochemical. The arrangement: species or system M. triplex.
Test [8] deals with E. coli TPP. To be noted: cited from earlier work.

The structures appear in SMILES notation. Values after ≈ are worked out from the molar mass of the structure shown.

Mtx TPP, sequence (A0A024JUE5 1-354): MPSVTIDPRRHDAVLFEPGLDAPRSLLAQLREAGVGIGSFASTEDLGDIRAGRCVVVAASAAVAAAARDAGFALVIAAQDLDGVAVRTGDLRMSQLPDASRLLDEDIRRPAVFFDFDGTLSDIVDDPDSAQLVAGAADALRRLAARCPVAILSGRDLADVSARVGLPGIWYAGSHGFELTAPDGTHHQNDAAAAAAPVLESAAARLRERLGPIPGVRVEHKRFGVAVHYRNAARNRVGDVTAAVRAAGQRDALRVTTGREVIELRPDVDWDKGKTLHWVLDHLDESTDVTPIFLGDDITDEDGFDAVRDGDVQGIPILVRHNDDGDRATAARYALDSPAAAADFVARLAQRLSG
Mtb TPP, sequence (P9WFZ5 whole entry, looked up): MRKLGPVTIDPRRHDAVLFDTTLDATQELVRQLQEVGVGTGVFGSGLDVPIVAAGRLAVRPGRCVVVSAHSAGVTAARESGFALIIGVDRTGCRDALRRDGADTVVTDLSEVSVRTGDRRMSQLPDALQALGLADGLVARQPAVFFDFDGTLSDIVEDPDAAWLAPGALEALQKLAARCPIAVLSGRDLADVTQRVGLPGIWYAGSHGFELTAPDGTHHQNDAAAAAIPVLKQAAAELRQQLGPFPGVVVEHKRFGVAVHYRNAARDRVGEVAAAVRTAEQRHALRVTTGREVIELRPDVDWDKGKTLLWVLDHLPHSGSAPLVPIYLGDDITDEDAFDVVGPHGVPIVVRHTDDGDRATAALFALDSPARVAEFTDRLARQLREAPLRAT

Take `[N-]=[N+]=NC[C@H]1O[C@H](O[C@H]2O[C@H](CO)[C@@H](O)[C@H](O)[C@H]2O)[C@H](O)[C@@H](O)[C@@H]1O` [6-azido-6-deoxy-α,α’-trehalose]: the “MIC, growth of M. aurum” value in test [1] is 200 µg/mL. Further, in test [2], the “MIC, M. smegmatis biofilm formation” value is 50 to 100 µM. The “inhibition of Ag85C activity” value in test [3] is recorded as “inhibit Ag85C activity”.

Take `OC[C@H]1O[C@H](O[C@H]2O[C@H](CBr)[C@@H](O)[C@H](O)[C@H]2O)[C@H](O)[C@@H](O)[C@@H]1O` [6-bromo-6-deoxy-α,α’-trehalose]: the “MIC against Mtb” value in test [4] is 200 µg/mL (≈ 494 µM).

Take `CC1OC(OC2OC(CO)C(O)C(O)C2O)C(O)C(O)C1O` (stereo not drawn) [6-deoxy-α,α’-trehalose]: in test [2], the “MIC, M. smegmatis biofilm formation” value is 50 to 100 µM.

Regarding `OCC1OC(OC2OC(CF)C(O)C(O)C2O)C(O)C(O)C1O` (stereo not drawn) [6-fluoro-6-deoxy-α,α’-trehalose], in test [4], the “MIC against Mtb” value is 200 µg/mL (≈ 581 µM). In addition, the “MIC, M. smegmatis biofilm formation” value in test [2] was 50 to 100 µM.

`OC[C@H]1O[C@H](O[C@H]2O[C@H](CC3CO3)[C@@H](O)[C@H](O)[C@H]2O)[C@H](O)[C@@H](O)[C@@H]1O` (stereo partly drawn) [Compound 7, 6-deoxy-6-oxiranyl-α,α’-trehalose]: the “inhibition of Mtb TPP” value in test [5] is given as “no inhibition”. Also, the “inhibition of Mlt TPP” value in test [6] is reported as “no inhibition”. In addition, the “inhibition of Mtx TPP” value in test [7] is reported as “no inhibition”.

For orientation: IC50 means the concentration at which inhibition is half-maximal. On to `O=P(O)(O)CC[C@H]1O[C@H](O[C@H]2O[C@H](CO)[C@@H](O)[C@H](O)[C@H]2O)[C@H](O)[C@@H](O)[C@@H]1O` [TEP, 6-Deoxy-6-(methylenephosphonic acid)-α,α’-trehalose], for which the 50% inhibitory concentration (IC50) in test [7] amounted to 1960 ± 261 µM.

`O=P(O)(O)C[C@H]1O[C@H](O[C@H]2O[C@H](CO)[C@@H](O)[C@H](O)[C@H]2O)[C@H](O)[C@@H](O)[C@@H]1O` [TMP, 6-Deoxy-6-(phosphonic acid)-α,α’-trehalose] came in with a half-maximal inhibitory concentration (IC50) in test [7] of 288 ± 32 µM.

On to `OCC1=C[C@@H](N[C@H]2C[C@H](CO)[C@@H](O[C@H]3O[C@@H](CO)[C@H](O)[C@@H](O)[C@@H]3O)[C@H](O)[C@H]2O)[C@H](O)[C@@H](O)[C@@H]1O` [Validamycin A], for which the “IC50 against Mtb TPP” value in test [5] is listed as “unexpectedly high”. Also, in test [6], the “IC50 against Mlt TPP” value was “unexpectedly high”. For the same compound, the “IC50 against Mtx TPP” value in test [7] is listed as “unexpectedly high”. Moreover, in test [8], the “inhibition of E. coli TPP” value is reported as “completely inhibit”.
